Consider three molecules from article PMC7315563, “Bioactive fluorenes. Part III: 2,7-dichloro-9H-fluorene-based thiazolidinone and azetidinone analogues as anticancer and antimicrobial against multidrug resistant strains agents” (BMC Chemistry, 2020).

In brackets after ≈: the same amount, converted by molar mass.

Holding throughout (type): cell-based
Assay [1] concerns MDA-MB-231 human breast cancer cells. The experiment in a line: cell viability assay (MTT). Conditions: 24 h; for viability at 1 µg/mL: read-out: Validity (%) for sample concentrations (µg/mL) 1; for viability at 10 µg/mL: read-out: Validity (%) for sample concentrations (µg/mL) 10; for viability at 31.25 µg/mL: read-out: Validity (%) for sample concentrations (µg/mL) 31.25; for viability at 62.5 µg/mL: read-out: Validity (%) for sample concentrations (µg/mL) 62.5; for viability at 125 µg/mL: read-out: Validity (%) for sample concentrations (µg/mL) 125; for viability at 250 µg/mL: read-out: Validity (%) for sample concentrations (µg/mL) 250; for viability at 500 µg/mL: read-out: Validity (%) for sample concentrations (µg/mL) 500. Put shortly:
(§1)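 Seeding at 5000 cells/well in RPMI-1640 plus 10% inactivated FBS; treatment the following day with compound in fresh medium over 0–500 µg/mL; 24 h incubation; MTT viability with absorbance taken at […].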

The test system of assay [2] is WI-38 human normal fibroblast cells. The experiment in a line: cell viability assay (MTT). As to conditions: 24 h; for viability at 31.25 µg/mL: read-out: Validity (%) for sample concentrations (µg/mL) 31.25; for viability at 62.5 µg/mL: 62.50 µg/mL, read-out: Validity (%) for sample concentrations (µg/mL) 62.50; for viability at 125 µg/mL: read-out: Validity (%) for sample concentrations (µg/mL) 125; for viability at 250 µg/mL: read-out: Validity (%) for sample concentrations (µg/mL) 250; for viability at 500 µg/mL: read-out: Validity (%) for sample concentrations (µg/mL) 500. In a few lines:
as §1

The next assay has as its system E. coli. The experiment in a line: MIC by broth microdilution method (resazurin end point). As to conditions: Escherichia coli, 24 h at 37 °C. In a few lines:
(§2)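 Twofold dilutions of fluorene derivatives (500–7.8 μg/mL) in Mueller–Hinton broth, inoculum from 0.5 McFarland suspension per CLSI 2012. Resazurin added, 1–4 h at 37 °C; MIC is lowest concentration preventing blue-to-pink change.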
In general terms: Dilution methods test growth across graded concentrations, often in twofold steps.

A further assay concerns K. pneumoniae. The description is as above. As to conditions: Klebsiella pneumoniae, 24 h at 37 °C. Put shortly: as §2
Assay [3] has as its system Escherichia coli (E. coli), multidrug resistant clinical isolate. The assay can be described thus: agar well diffusion assay. Conditions: 24 h, 500 µg/mL of tested compound. Put shortly:
(§3)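 Multidrug-resistant clinical isolates swabbed on Mueller–Hinton agar at about 1–5 × 10^5 CFU/mL; 0.5 cm wells received 50 μL compound at 500 μg/mL in 1% DMSO. Incubation 24 h, 37 °C for bacteria and C. albicans, 25 °C for Aspergillus; inhibition zone diameter measured in mm.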

The test system of assay [4] is Streptococcus pneumoniae (S. pneumoniae), multidrug resistant clinical isolate. The experiment in a line: agar well diffusion assay. As to conditions: S. pneumoniae; 500 µg/mL of tested compound; 24 h. In a few lines: as §3
For orientation: In agar diffusion tests the substance spreads into inoculated agar from a disc or well.

In assay [5] the test system is methicillin-resistant Staphylococcus aureus (MRSA). The assay can be described thus: agar well diffusion assay. Conditions: 500 µg/mL of tested compound, 24 h. In a few lines: as §3
A further assay has as its system P. aeruginosa. The assay can be described thus: MIC by broth microdilution method (resazurin end point). Conditions: Pseudomonas aeruginosa, 24 h at 37 °C. In a few lines: as §2

In the case of `O=C1C(Cl)C(c2ccc(Cl)cc2)N1c1nc(-c2cc(Cl)cc3c2-c2ccc(Cl)cc2C3)cs1` (centres unmarked) [6c, 3-Chloro-4-(4-chlorophenyl)-1-(4-(2,7-dichloro-9H-fluoren-4-yl)thiazol-2-yl)azetidin-2-one], in assay [1], the viability at 1 µg/mL was found to be 92.8%, the viability at 10 µg/mL was determined as 77.8%, the viability at 31.25 µg/mL came to 63.1% and the viability at 62.5 µg/mL stood at 53.1%. In assay [1], the viability at 125 µg/mL was determined as 46%, the viability at 250 µg/mL came to 29.4%, the viability at 500 µg/mL worked out at 24.8% and the IC50 (commonly the concentration needed to halve the response being measured) was 104 µg/mL (≈ 195 µM). For the same molecule, in assay [2], the viability at 31.25 µg/mL was 94.5%, the viability at 62.5 µg/mL turned out to be 65.9%, the viability at 125 µg/mL is 63.4% and the viability at 250 µg/mL is 59.5%. Further, in assay [2], the viability at 500 µg/mL is 55.5% and the IC50 was > 500 µg/mL. For the same molecule, in the assay on E. coli, the MIC (in general, the lowest concentration that inhibits growth of the organism) came to 62.5 µg/mL (≈ 117 µM). Besides, in the assay with K. pneumoniae, the MIC is 125 µg/mL (≈ 235 µM). Further, the zone of inhibition (in general, the size of the clear area around the sample on an inoculated plate) at 500 µg/mL in assay [3] was determined as 15 mm.

Regarding `O=C1C(Cl)C(c2ccc(Br)cc2)N1c1nc(-c2cc(Cl)cc3c2-c2ccc(Cl)cc2C3)cs1` (centres unmarked) [6d, 4-(4-Bromophenyl)-3-chloro-1-(4-(2,7-dichloro-9H-fluoren-4-yl)thiazol-2-yl)azetidin-2-one], in assay [1], the viability at 1 µg/mL is 93.3%, the viability at 10 µg/mL came out at 89.1%, the viability at 31.25 µg/mL was determined as 75.8% and the viability at 62.5 µg/mL worked out at 63.3%. In assay [1], the viability at 125 µg/mL was found to be 53.1%, the viability at 250 µg/mL stood at 27.7%, the viability at 500 µg/mL is 24% and 169 µg/mL (≈ 293 µM) corresponded to half-maximal inhibition (IC50). For the same molecule, in assay [2], the viability at 31.25 µg/mL is 92%, the viability at 62.5 µg/mL amounted to 88.1%, the viability at 125 µg/mL was 78.6% and the viability at 250 µg/mL amounted to 67.5%. Also, in assay [2], the viability at 500 µg/mL came to 67.7% and the IC50 was > 500 µg/mL. For the same molecule, the “Mean zone of inhibition” value in assay [4] was “no activity”. Besides, the “Mean zone of inhibition” value in assay [5] is “no activity”.

Take `O=C1C(Cl)C(c2cccs2)N1c1nc(-c2cc(Cl)cc3c2-c2ccc(Cl)cc2C3)cs1` (centres unmarked) [6k, 3-Chloro-1-(4-(2,7-dichloro-9H-fluoren-4-yl)thiazol-2-yl)-4-(thiophen-2-yl)azetidin-2-one]: in assay [1], the viability at 1 µg/mL amounted to 96.4%, the viability at 10 µg/mL amounted to 90.7%, the viability at 31.25 µg/mL came out at 78.6% and the viability at 62.5 µg/mL is 69.6%. In addition, in assay [1], the viability at 125 µg/mL was determined as 51%, the viability at 250 µg/mL came to 33.3%, the viability at 500 µg/mL is 19.1% and the IC50 worked out at 131 µg/mL (≈ 260 µM). Also, in assay [2], the viability at 31.25 µg/mL was 77.9%, the viability at 62.5 µg/mL turned out to be 64%, the viability at 125 µg/mL was 61.3% and the viability at 250 µg/mL was determined as 60.3%. In assay [2], the viability at 500 µg/mL came out at 58.3% and the IC50 is > 500 µg/mL. In addition, the MIC in the assay with P. aeruginosa stood at 125 µg/mL (≈ 248 µM). The molecule further came in with an MIC with E. coli of 31.2 µg/mL (≈ 62 µM). Further, the zone of inhibition at 500 µg/mL in assay [3] worked out at 14 mm.
